{"source": "patent US20250214973A1", "about": "“1,4,5-TRISUBSTITUTED-1,2,3-TRIAZOLES AND USES THEREOF” (UNIVERSITY OF PUERTO RICO, priority 2022, published 2025)", "key": {"[1]": {"tested_on": "human mammary epithelial cells (HMEC)", "test": "Cell viability assay (MTT)", "format": "cell-based", "details": "0-1000 nM", "experimental": "Cells were treated with 4c at concentrations ranging from 0-1000 nM. Cell viability was assessed by a MTT assay. n=2.\nEqual number of cells were seeded in a 24 well plate and incubated with vehicle or compounds according to this disclosure at concentrations between 1 and 0.001 nM for 72 and 120 hrs. Using CellTiter 96 Non-Radioactive Cell Proliferation Assay (Promega, Corp.) according to manufactures' instructions, formazan was used as an indicator of viable cells at an absorbance 570 nm in a Tecan Microplate Reader M100. Data was calculated as fold change from vehicle and fitted using the 4′parameter logic nonlinear regression model in GraphPad Prism software. (n=3 biologic replicates: with 3 technical replicates each)."}, "MDA-MB-231 [2]": {"tested_on": "MDA-MB-231", "test": "Initial screening, SRB assay GI50", "format": "cell-based", "details": "Homo sapiens, 48 hrs", "experimental": "(§1) For initial screening, the GIso of compounds 4a-4h in the cell lines MDA-MB-231, MDA-MB-435 and MCF-7 was determined via the SRB-assay for 48 hrs as follows:\n(§2) A stock solution of compounds was prepared at 50 mM in 100% DMSO. For cells preparation, a flask of 75 cm^2 or 25 cm^2 were used for 2.6×10^5 cells/mL or 1.44×10^5 cells/mL, respectively, with an 80-90% of confluence. Cells were washed with PBS and trypsinized. The concentration of cells was determined using a 1:2 dilutions with Trypan Blue and a hemocytometer. After cell count, the concentration was adjusted to have a 7.0-10.0×10^4 cells/mL. Approximately 100 μL of cells suspension, compounds, control positive and control negative were added in triplicates to a 96 well plate. Positive control used was doxorubicin, and the negative control was DMSO 0.1%. All compounds (4a-h) at 50, 25, 12.5, 6.3, and 1.6 μM were incubated with cells at 37° C. for 48 hrs. For fixation, cold TCA 50% was used and incubated at 4° C. for 1 h. Wells were washed and dried prior to tincture with 100 μL of SRB 0.4%. To remove excess of SRB, acetic acid was used. For analysis, TRIS-BASE Solution (pH=10.5) was used and shaken prior to reading using an ELISA reader at 540 nm and the software SoftMax Pro 4.8. For each compound, 50% growth inhibition (GI50) was calculated from Sigmoidal dose-response curves (variable-slope) that were generated with data obtained from experiments carried out in triplicates (GI50 values were generated with GraphPad Prism V. 6.02, GraphPad Software, Inc.)."}, "MDA-MB-435": {"tested_on": "MDA-MB-435", "test": "Initial screening, SRB assay GI50", "format": "cell-based", "details": "Homo sapiens, 48 hrs, read-out: MDA-MB435 GI50", "experimental": "as §1, §2"}, "MCF-7": {"tested_on": "MCF-7", "test": "Initial screening, SRB assay GI50", "format": "cell-based", "details": "Homo sapiens, MCF7, 48 hrs", "experimental": "as §1, §2"}, "Vav2 binding to Rac1": {"target": "T1, Vav2 binding to Rac1 (Homo sapiens, UniProt P63000, G15A)", "T1 construct": "purchased Cell Biolabs, San Diego; CA; host or cells: Vav2 from MDA-MB-231 cell lysate", "test": "Rac1 GEF assay, Rac1(G15A) pulldown", "details": "250 nM, MDA-MB-231 lysates", "experimental": "GST-Rac1 (G15A) beads were pre-incubated with vehicle (0.1% DMSO), or 8 μM EHop-016, or 250 nM Compound 4c for 1 hour followed by incubation with MDA-MB-231 cell lysates (equal total protein). Representative Western blot for Rac1(G15A) or pulldowns immunostained for Vav2 is shown (n=3).\nMDA-MB-231 cells in culture medium were lysed in 1% Triton X-100, 20 mM HEPES, pH 7.4, 150 mM NaCl, 5 mm MgCl2, and protease inhibitors and processed. Equal amounts of protein from cleared lysates were incubated for 1 h at 4° C. with glutathione-agarose beads conjugated to GST-Rac1(G15A) nucleotide-free mutant (Cell Biolabs, San Diego. CA) that were preincubated (for 1 h) with vehicle or 8 μm EHop-016 or 0.25 μM Compound 4c. The beads were washed, and the lysates and pull-downs were immunoblotted for Tiam-1, Trio, Ect2, p-REX, or Vav2."}, "[3]": {"tested_on": "A549 lung adenocarcinoma cells", "test": "EGF-induced membrane ruffles, F-actin staining", "format": "cell-based", "details": "24 h", "experimental": "Cells were stimulated with EGF (200 ng/ml) for 5 min, and fixed and stained with Rhodamine Phalloidin for F-actin.\nCells were grown on glass coverslips and treated with vehicle or 4c for 24h. Lung cancer cells that were stimulated with epidermal growth factor (EGF) were serum starved prior to stimulation with 200 ng/ml EGF for 5 min. Following fixation in 4% formaldehyde, cells were stained for F-actin with Rhodamine phalloidin and visualized by fluorescence microscopy. 5 random fields were scored for the number of ruffles."}, "MDA-MB-231 [4]": {"tested_on": "MDA-MB-231", "test": "Initial screening, inhibition of migration (wound gap)", "format": "cell-based", "details": "Homo sapiens, at 10 μM, read-out: Inh. of migration", "experimental": "In addition, the inhibition of migration of MDA-MB-231 was determined via the following procedure:\nPrior to assays, cells were grown until 80-90% confluence was observed. We used a 75 cm^2 flask for 2.6×10^5 cells/mL in 10 mL and for a 25 cm^2 flask 1.44×10^5 cells/mL in 5 mL. The cells were washed with PBS to remove all traces of FBS. We added 2 mL for a 25 cm^2 flasks or 4 mL for a 75 cm^2 flasks trypsin, and incubated 5-10 min at 37° C. At the end of the incubation time, cells were re-suspended and counted with hemocytometer using 1:2 dilutions with Trypan blue. Subsequently, cell viability was calculated. In a 12 well tissue culture plate, we used the plastic pattern to draw a fine space with a fine marker on the bottom of the plate. Cells were seeded at 1.5-2.2×10^5 cells/mL in 1 mL and incubated for 24 h. Cells were then rinsed with PBS and incubated in starving media (0.5% FBS) overnight. All controls and drugs were tested in triplicate. The negative control for each drug was prepared according to the drug's DMSO concentration. […] The wound was made using a sterile pipette tip of 200 μL. Cells were then rinsed very gently with media without FBS and media with negative controls was added. After a 24 h incubation, the gap distance was evaluated using the software Lumera Infinity Analyze 6.4.0. Pictures were taken at 0, 8, 12 and 24 h using a 10× objective in an Inverted Laboratory Microscope Leica DM IL LED, and an Infinity1-3 3.1 Megapixel USB 2.0 camera CMOS. The percentage of migration was calculated using the following formula: […]"}}}
{"smiles": "CCn1c2ccccc2c2cc(-n3nnc(C(O)c4cccc(OC)c4)c3-c3ccccc3)ccc21", "note": "(stereo not drawn) [Compound 4c, (1-(9-ethyl-9H-carbazol-3-yl)-5-phenyl-1H-1,2,3-triazol-4-yl) (3-methoxyphenyl) methanol]", "values": [{"measurement": "effect on non-transformed HMEC viability", "setting": "[1]", "value": "did not affect"}, {"measurement": "GI50", "setting": "MDA-MB-231 [2]", "value": 17.2, "unit": "µM"}, {"measurement": "GI50", "setting": "MDA-MB-435", "value": 1.6, "unit": "µM"}, {"measurement": "GI50", "setting": "MCF-7", "value": 3.2, "unit": "µM"}, {"measurement": "inhibition at […]", "setting": "Vav2 binding to Rac1", "value": "~80", "unit": "%"}, {"measurement": "reduction of membrane ruffles in response to EGF", "setting": "[3]; 250 nM", "value": 20, "unit": "%"}, {"measurement": "reduction of membrane ruffles in response to EGF", "setting": "[3]; 500 nM", "value": "~38", "unit": "%"}, {"measurement": "reduction of membrane ruffles in response to EGF", "setting": "[3]; 1000 nM", "value": 58, "unit": "%"}, {"measurement": "inhibition at 10 µM", "setting": "MDA-MB-231 [4]", "value": "50.8 ± 11.4", "unit": "%"}]}
